Test results as given in patent US11198869B2, “Angelman syndrome antisense treatment” (The Texas A&M University System, priority 2017, dated 2021).

Assays:
IPW [1] = test: RNA-sequencing of Angelman syndrome iPSC neurons: IPW; assay type: cell-based, human; conditions: 30 μM, RNA-seq; for Difference, IPW RNA level relative to vehicle: six days post-treatment
Protocol: (§1) RNA was isolated using Qiagen RNAeasy Plus (74136, Qiagen, Hilden, Germany). RNA concentration was determined using Qubit Fluorometric Quantitation (Thermo Fisher Scientific) and RNA quality was assessed using a 4200 Agilent TapeStation (Agilent, Santa Clara, Calif.). RNA-sequencing libraries were generated using the Illumina TruSeq Stranded Total RNA kit (20020597, Illumina, Inc., San Diego, Calif.) according to the manufacturer's protocol. 75 base-pair paired-end sequencing was performed using a NextSeq 500 (IIlumina, San Diego, Calif.) at the Texas A&M Institute for Genome Sciences and Society Genomics core. Raw sequencing reads were processed using CASAVA. The resulting FASTQ sequences were examined using FASTQC.
Angelman syndrome induced pluripotent stem cells derived neurons Angelman syndrome iPS cells (AG1-0 iPSCs) (ECN001, Kerafast, Boston, Mass.) were co-cultured on irradiated murine embryonic fibroblasts in human embryonic stem cell medium [DMEM/F12 (11330-057, Gibco Biosciences, Dublin, Ireland), 20% Knockout Serum Replacement (10828-028, Thermo Fisher Scientific), 1× Non-essential amino acids, 2 mM L-glutamine, […] 2-Mercaptoethanol, and 4 μg/mL basic Fibroblast Growth Factor]. […]
(§2) To determine whether ASO-4.4.PS.L and ASO-6.1.PO-1.O affect the levels of RNA transcripts encoded by the PWS polycistronic transcript, RNA-sequencing was performed on AS iPS cells treated with each ASO and the steady state RNA levels of SNURF, SNRPN, the SNORD116 host-gene transcript (SNHG116), the SNORD116 snoRNAs, IPW, the SNORD115 host-gene transcript (SNHG115), the SNORD115 snoRNAs, and UBE3A-AS were quantified. UBE3A steady state RNA levels were also measured. […]
Normalized FPKM (fragments per […] per million) values of the RefSeq gene annotation will be estimated using Cuffnorm with the default settings and the following option: −u. The FPKM values of each gene annotation was determined for each sample from the output file and used for descriptive and inferential statistics.

SNORD115 snoRNAs = test: RNA-sequencing of Angelman syndrome iPSC neurons: SNORD115 snoRNAs; assay type: cell-based, human; conditions: 30 μM; six days post-treatment; RNA-seq
Protocol: as §1, with “FASTQC. […]” for “FASTQC.”
as §2

UBE3A [2] = test: RNA-sequencing of Angelman syndrome iPSC neurons: UBE3A; assay type: cell-based, human; conditions: 30 μM; six days post-treatment; RNA-seq
Protocol: as §1, with “FASTQC. […]” for “FASTQC.”
as §2

UBE3A-AS [3] = test: RNA-sequencing of Angelman syndrome iPSC neurons: UBE3A-AS; assay type: cell-based, human; conditions: 30 μM; RNA-seq; relative to vehicle
Protocol: as §1, with “FASTQC. […]” for “FASTQC.”
as §2

UBE3A-AS [4] = test: UBE3A-AS steady state RNA (TaqMan qRT-PCR) in GABAergic iPSC-derived neurons; assay type: cell-based, human; conditions: for Relative Potency: relative to ASO-4.4.PS.L = 1
SNORD109A/B = SNORD109A/B steady state RNA (qRT-PCR) in GABAergic iPSC-derived neurons; conditions: 10-point dose curve 1 nM-30 μM; 14 DIV to 20 DIV
UBE3A [5] = test: UBE3A steady state RNA (qRT-PCR) in GABAergic iPSC-derived neurons; assay type: cell-based, human; conditions: 10-point dose curve 1 nM-30 μM; 14 DIV to 20 DIV
IPW [6] = test: IPW steady state RNA (qRT-PCR) in GABAergic iPSC-derived neurons; conditions: 10-point dose curve 1 nM-30 μM; 14 DIV to 20 DIV
SNORD115 = SNORD115 steady state RNA (qRT-PCR) in GABAergic iPSC-derived neurons; conditions: 10-point dose curve 1 nM-30 μM; 14 DIV to 20 DIV
[7] = Cluster 1 ASOs, 18 DIV to 24 DIV, parallel model, 4 Parameter logistic (Hill)
[8] = candidate ASOs, 18 DIV to 24 DIV
[9] = candidate ASOs, 18 DIV to 24 DIV, 4-parameter logistic (Hill)
[10] = candidate ASOs, treated 18 DIV, RNA 24 DIV, 10-point dose curve, n=2, full model, 4-parameter logistic (Hill)

Compound	Difference, IPW RNA level relative to vehicle (IPW [1])	Difference, SNORD115 RNA level relative to vehicle (SNORD115 snoRNAs)	Difference, UBE3A RNA level relative to vehicle (UBE3A [2])	effect on UBE3A-AS RNA levels (UBE3A-AS [3]) [fold change]	IC50 (UBE3A-AS [4]; [7]) [nM]	IC50 Ratio relative to ASO-4.4.PS.L (UBE3A-AS [4]; Cluster 1 ASOs, equivalence, two one-sided tests)	Relative Potency (UBE3A-AS [4]; Cluster 1 ASOs, parallel model)	Limit Exceeded (equivalence of IC50 relative to ASO-4.4.PS.L) (UBE3A-AS [4]; Cluster 1 ASOs, two one-sided tests)	30 μM (Mean), normalized UBE3A-AS RNA level relative to vehicle (UBE3A-AS [4]; [8])	Emax (normalized UBE3A-AS RNA level relative to vehicle) (UBE3A-AS [4]; [9])	IC50 (UBE3A-AS [4]; [10]) [nM]	reduction of IPW levels (IPW [1]; effect not significant) [fold]	effect on SNORD109A/B RNA levels (in words) (SNORD109A/B)	effect on total UBE3A RNA levels (in words) (UBE3A [5])	effect on IPW RNA levels (in words) (IPW [6])	effect on SNORD115 RNA levels (in words) (SNORD115)
C^O*U^O*G^O*G^O-t*g*t*c*a*a*c*a*a*g-C^O*C^O*A^O*A^o [ASO-6.1.PO-1.O]	0.18	0.24	0.74	−2.8	199	0.86	0.3	Lower	0.04	−0.1	315					
A^L*G^L*A^L*a*t*g*g*c*a*c*a*t*c*t*5mC^L*T^L*T^L*G^L (NNNATGGCACATCTNNNN; LNA gapmer, PS, 5-methylcytosine, chemistry not fully specified) [ASO-4.4.PS.L]	−0.49	−0.26	0.90	−6.1	50.3		1		0.05	0.0	26.6	1.5				
CC[C@@]1(O)C(=O)OCc2c1cc1n(c2=O)Cc2cc3c(CN(C)C)c(O)ccc3nc2-1 [Topotecan, reference compound]													significant effect on SNORD116, IPW, SNORD115, and SNORD109A/B RNA levels that was dose dependent	increased total UBE3A RNA levels in a dose-dependent manner, except for Topotecan at higher concentrations	significant effect on SNORD116, IPW, SNORD115, and SNORD109A/B RNA levels that was dose dependent	significant effect on SNORD116, IPW, SNORD115, and SNORD109A/B RNA levels that was dose dependent
U^O*A^O*G^O*A^O*A^O*t*g*g*c*a*c*a*t*c*t*C^O*U^O*U^O*G^O*G^O [ASO-4]													significant effect on the RNA levels of IPW, SNORD115, and SNORD109A/B but not in a dose dependent manner	increased total UBE3A RNA levels in a dose-dependent manner	significant effect on the RNA levels of IPW, SNORD115, and SNORD109A/B but not in a dose dependent manner	significant effect on the RNA levels of IPW, SNORD115, and SNORD109A/B but not in a dose dependent manner
